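These data come from cells grown in 96-well plates and exposed to compound for 48 hours at five concentrations. Abbreviation: GI50, concentration required for 50% inhibition of growth. TGI: total growth inhibition.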
What was measured:
Test in all cases: NCI tumour cell line growth inhibition, 48 h
[1] = tested on: SK-MEL-28 melanoma
[2] = tested on: UO-31 renal
[3] = tested on: CCRF-CEM leukemia
[4] = tested on: K-562 leukemia
[5] = tested on: NCI-H460 lung
[6] = tested on: SF-539 CNS
[7] = tested on: NCI/ADR-RES ovarian
[8] = tested on: OVCAR-3 ovarian
[9] = tested on: MCF7 breast
[10] = tested on: NCI-H226 lung
[11] = tested on: SR leukemia
[12] = tested on: SF-295 CNS
[13] = tested on: SW-620 colon
[14] = tested on: DU-145 prostate
[15] = tested on: HCT-116 colon
[16] = tested on: SNB-19 CNS
[17] = tested on: HS 578T breast
[18] = tested on: ACHN renal
[19] = tested on: HOP-62 NSCLC
[20] = tested on: SK-MEL-5 melanoma
[21] = tested on: PC-3 prostate
[22] = tested on: HOP-92 NSCLC
[23] = tested on: SK-OV-3 ovarian
[24] = tested on: 786-0 renal
[25] = tested on: UACC-62 melanoma
[26] = tested on: RPMI-8226 leukemia
[27] = tested on: COLO 205 colon
[28] = tested on: MDA-MB-435
[29] = tested on: OVCAR-4 ovarian
[30] = tested on: SK-MEL-2 melanoma
[31] = tested on: TK-10 renal
[32] = tested on: M14 melanoma
[33] = tested on: A549 NSCLC
[34] = tested on: SNB-75 CNS
[35] = tested on: MALME-3M melanoma
[36] = tested on: HT29 colon
[37] = tested on: EKVX NSCLC
[38] = tested on: T-47D breast
[39] = tested on: MOLT-4 leukemia
[40] = tested on: BT-549 breast
[41] = tested on: HL-60(TB) leukemia
[42] = tested on: UACC-257 melanoma
[43] = tested on: KM12 colon
[44] = tested on: OVCAR-8 ovarian
[45] = tested on: HCT-15 colon
[46] = tested on: CAKI-1 renal
[47] = tested on: NCI-H23 lung
[48] = tested on: HCC-2998 colon
[49] = tested on: A498 renal
[50] = tested on: U251 CNS
[51] = tested on: SN12C renal
[52] = tested on: RXF 393 renal
[53] = tested on: IGROV1 ovarian
[54] = tested on: SF-268 CNS
[55] = tested on: LOX IMVI melanoma
[56] = tested on: OVCAR-5 ovarian
[57] = tested on: NCI-H522 lung
[58] = tested on: MDA-MB-231 breast

`Cc1ccc(-c2nc([P+](c3ccccc3)(c3ccccc3)c3ccccc3)c(N3CCOCC3)o2)cc1` was tested, and the GI50 [1] was 515 nM, the TGI [1] was 9180 nM and the GI50 [2] was 2230 nM. It also gave a TGI [2] of 7300 nM, a GI50 [3] of 588 nM and a TGI [3] of 11300 nM. The GI50 [4] was 331 nM, the TGI [4] was 4870 nM and the GI50 [5] was 468 nM. For the same molecule, the TGI [5] was 10800 nM, the GI50 [6] was 787 nM and the TGI [6] was 10100 nM. It also gave a GI50 [7] of 21900 nM, a TGI [7] greater than 100000 nM and a GI50 [8] of 362 nM. It also gave a TGI [8] of 3690 nM, a GI50 [9] of 316 nM and a TGI [9] of 2180 nM. It also gave a GI50 [10] of 724 nM, a TGI [10] of 8030 nM and a GI50 [11] of 418 nM. For the same molecule, the TGI [11] was 5330 nM, the GI50 [12] was 1120 nM and the TGI [12] was 4350 nM. The GI50 [13] was 467 nM, the TGI [13] was 11800 nM and the GI50 [14] was 472 nM. For the same molecule, the TGI [14] was 10900 nM, the GI50 [15] was 356 nM and the TGI [15] was 10800 nM. It also gave a GI50 [16] of 333 nM, a TGI [16] of 4910 nM and a GI50 [17] of 578 nM. The TGI [17] was 9640 nM, the GI50 [18] was 2320 nM and the TGI [18] was 7530 nM. For the same molecule, the GI50 [19] was 830 nM, the TGI [19] was 6610 nM and the GI50 [20] was 314 nM. It also gave a TGI [20] of 1030 nM, a GI50 [21] of 315 nM and a TGI [21] of 3720 nM. It also gave a GI50 [22] of 300 nM, a TGI [22] of 2440 nM and a GI50 [23] of 381 nM. For the same molecule, the TGI [23] was 4320 nM, the GI50 [24] was 2540 nM and the TGI [24] was 12700 nM. It also gave a GI50 [25] of 350 nM, a TGI [25] of 1450 nM and a GI50 [26] of 251 nM. The TGI [26] was 1160 nM, the GI50 [27] was 343 nM and the TGI [27] was 1680 nM. The GI50 [28] was 351 nM, the TGI [28] was 1810 nM and the GI50 [29] was 281 nM. For the same molecule, the TGI [29] was 3030 nM, the GI50 [30] was 559 nM and the TGI [30] was 2760 nM. The GI50 [31] was 1440 nM, the TGI [31] was 9150 nM and the GI50 [32] was 543 nM. It also gave a TGI [32] of 10400 nM, a GI50 [33] of 500 nM and a TGI [33] of 14000 nM. The GI50 [34] was 194 nM, the TGI [34] was 1110 nM and the GI50 [35] was 378 nM. For the same molecule, the TGI [35] was 3110 nM, the GI50 [36] was 357 nM and the TGI [36] was 11000 nM. The GI50 [37] was 1080 nM, the TGI [37] was 9990 nM and the GI50 [38] was 230 nM. For the same molecule, the TGI [38] was 1830 nM, the GI50 [39] was 499 nM and the TGI [39] was 3270 nM. It also gave a GI50 [40] of 381 nM, a TGI [40] of 5140 nM and a GI50 [41] of 246 nM. The TGI [41] was 738 nM, the GI50 [42] was 341 nM and the TGI [42] was 3420 nM. The GI50 [43] was 368 nM, the TGI [43] was 1820 nM and the GI50 [44] was 505 nM. It also gave a TGI [44] of 9500 nM, a GI50 [45] of 3090 nM and a TGI [45] of 12100 nM. It also gave a GI50 [46] of 5580 nM, a TGI [46] of 17100 nM and a GI50 [47] of 456 nM. The TGI [47] was 7450 nM, the GI50 [48] was 517 nM and the TGI [48] was 6870 nM. It also gave a GI50 [49] of 881 nM, a TGI [49] of 4500 nM and a GI50 [50] of 313 nM. It also gave a TGI [50] of 11900 nM, a GI50 [51] of 335 nM and a TGI [51] of 4160 nM. The GI50 [52] was 706 nM, the TGI [52] was 4250 nM and the GI50 [53] was 419 nM. The TGI [53] was 4110 nM, the GI50 [54] was 389 nM and the TGI [54] was 11000 nM. It also gave a GI50 [55] of 565 nM, a TGI [55] of 2440 nM and a GI50 [56] of 846 nM. The TGI [56] was 11900 nM, the GI50 [57] was 371 nM and the TGI [57] was 7390 nM. It also gave a GI50 [58] of 399 nM and a TGI [58] of 4930 nM.

Source: PubChem BioAssay (NCI)
